The text below walks through data of US9233946B2, “Sulfonamide compounds” (KANCERA AB, priority 2010, dated 2016).

Molecules are shown by their SMILES.

This assay has as its system PANC-1 cells. Put plainly: Quantification of F-2,6-P2 in PANC-1 cells. It is filed as cell-based. As to conditions: Homo sapiens, PANC-1; read-out: IC50 based on quantification of F-2,6-P2. In outline:
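Endogenous PFKFB3/PFKFB4 activity in PANC-1 cells, 18 h serum/glucose starvation in glucose-free DMEM/F12 with 0.25% FBS, then 1 h compound preincubation (50 and 10 μM, or dose response from 50 μM; 0.5% DMSO) at 37 °C. Glucose stimulation for 2 h, NaOH lysis, F-2,6-P2 quantified by Van Schaftingen coupled enzymatic assay against in-house standard.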

The IC50 is the point on the concentration scale where inhibition reaches its midpoint. Turning to `Cc1c(S(=O)(=O)Nc2cccc(C(=O)O)c2)sc2ccc(C(C)C)cc12` [Example 5, 3-{[(5-Isopropyl-3-methyl-1-benzothien-2-yl)sulfonyl]amino}benzoic acid], the IC50 stood at 2.3 µM.

In the case of `Cc1c(S(=O)(=O)Nc2cccc(C(=O)O)c2)sc2ccc(Cl)cc12` [Example 38, 3-{[(5-Chloro-3-methyl-1-benzothien-2-yl)sulfonyl]amino}benzoic acid], the IC50 came to 10.1 µM.
